Measured values from patent US20150139979A1, “METHODS OF TREATING A DISEASE OR DISORDER ASSOCIATED WITH BRUTON'S TYROSINE KINASE” (Celgene Avilomics Research, Inc., priority 2013, published 2015).
Read-outs that look alike come from different tables or passages of the source.

What was measured:
[1] = tested on: B-cell non-Hodgkin lymphoma; test: Single agent clinical study in B-cell non-Hodgkin lymphoma; assay type: in vivo
Protocol: As of Sep. […] See U.S. patent application Ser. No. 13/661,678 and International Patent Application No. PCT/US2012/062133, both filed on Oct. 26, 2012, each of which is hereby incorporated by reference in its entirety. […] Studies are ongoing and additional dose levels currently being investigated include: 1000 mg QD, 1250 mg QD, 375 mg BID and 500 mg BID.

[2] = Solubility; assay type: physicochemical
[3] = Environmental stability; assay type: physicochemical

| SMILES | maximum tolerated dose (MTD) ([1]; single agent, up to 750 mg PO QD) | evaluable B-NHL patients with decreased lymph node size ([1]; monotherapy) | patients with B-cell non-Hodgkin lymphoma who experienced stable disease ([1]; monotherapy, as of Sep. 11, 2012) | solubility ([2]; ethanol, organic solvent or mixture, read-out: solubility in ethanol) [µg/mL] | solubility ([2]; water, read-out: solubility in water) [µg/mL] | environmental instabilities (heat, acid, base) [3] |
| --- | --- | --- | --- | --- | --- | --- |
| C=CC(=O)Nc1cccc(Nc2nc(Nc3ccc(OCCOC)cc3)ncc2F)c1 [Compound 1, N-(3-(5-fluoro-2-(4-(2-methoxyethoxyl)phenylamino)pyrimidin-4-ylamino)phenyl)acrylamide] | has not yet been reached | – | – | – | – | – |
| C=CC(=O)Nc1cccc(Nc2nc(Nc3ccc(OCCOC)cc3)ncc2F)c1.O=S(=O)(O)c1ccccc1 [Compound 1 besylate, N-(3-(5-fluoro-2-(4-(2-methoxyethoxyl)phenylamino)pyrimidin-4-ylamino)phenyl)acrylamide besylate] | – | Six of eleven | 9 out of 17 | ~10000 | ~160 | no environmental instabilities |
